Source: ChEMBL document CHEMBL1151816, “Cytotoxic spirostane-type saponins from the roots of Chlorophytum borivilianum” (J Nat Prod, 2009)
Calls of active or inactive are those of the source. No cut-off for these calls is given here.

What was measured:
Assay type in all cases: functional, cell-based
HCT-116 [1] = experiment: Cytotoxicity against human HCT116 cells at 0.38 uM after 4 days by MTT assay
HT-29 = experiment: Cytotoxicity against human HT-29 cells at 2.6 uM after 4 days by MTT assay
HCT-116 [2] = experiment: Cytotoxicity against human HCT116 cells after 4 days by MTT assay; conditions: HCT-116, 96 h

For `C=C1CC[C@@]2(OC1)O[C@H]1C[C@H]3[C@@H]4CC[C@H]5C[C@@H](O[C@@H]6O[C@H](CO)[C@H](O[C@@H]7O[C@H](CO)[C@@H](O)[C@H](O[C@@H]8OC[C@@H](O)[C@H](O)[C@H]8O)[C@H]7O[C@@H]7O[C@H](CO)[C@@H](O)[C@H](O)[C@H]7O)[C@H](O)[C@H]6O)[C@H](O)C[C@]5(C)[C@H]4CC[C@]3(C)[C@H]1[C@@H]2C`, the Activity (HCT-116 [1]) was “Active” and the Activity (HT-29) was “Active”.

In the case of `CC(=O)O[C@H]1C(=O)[C@@]2(C)[C@H]([C@H](OC(=O)c3ccccc3)[C@]3(O)C[C@H](OC(=O)[C@H](O)[C@@H](NC(=O)c4ccccc4)c4ccccc4)C(C)=C1C3(C)C)[C@]1(OC(C)=O)CO[C@@H]1C[C@@H]2O` [PACLITAXEL], the IC50 (HCT-116 [2]) is reported as 1.1 nM.
